Laboratory results published in ChEMBL document CHEMBL1201862, “PubChem BioAssay data set” (2004).
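Five concentrations, 48 hours, 96-well plates. GI50 marks 50% less growth.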 Calls of active or inactive are those of the source. No stated cut-off is given here; in the data, active = GI50 up to about 1.1 µM and inactive = higher.

Key:
Assay in all cases: inhibition of tumour cell growth, NCI panel, 48 h
786-0 = system: 786-0
A549 = system: A549
ACHN = system: ACHN
BT-549 = system: BT-549
CAKI-1 = system: CAKI-1
CCRF-CEM = system: CCRF-CEM
COLO 205 = system: COLO 205
DU-145 = system: DU-145
EKVX = system: EKVX
HCC 2998 = system: HCC 2998
HCT-116 = system: HCT-116
HCT-15 = system: HCT-15
HL-60 = system: HL-60
HOP-62 = system: HOP-62
HOP-92 = system: HOP-92
HT-29 = system: HT-29
Hs-578T = system: Hs-578T
IGROV-1 = system: IGROV-1
K562 = system: K562
KM12 = system: KM12
LOX IMVI = system: LOX IMVI
M14 = system: M14
MCF7 = system: MCF7
MDA-MB-231 = system: MDA-MB-231
MDA-MB-435 = system: MDA-MB-435
MDA-N = system: MDA-N
MOLT-4 = system: MOLT-4
Malme-3M = system: Malme-3M
NCI-H226 = system: NCI-H226
NCI-H23 = system: NCI-H23
NCI-H460 = system: NCI-H460
NCI-H522 = system: NCI-H522
NCI/ADR-RES = system: NCI/ADR-RES
OVCAR-3 = system: OVCAR-3
OVCAR-4 = system: OVCAR-4
OVCAR-5 = system: OVCAR-5
OVCAR-8 = system: OVCAR-8
PC-3 = system: PC-3
RPMI-8226 = system: RPMI-8226
RXF 393 = system: RXF 393
SF-268 = system: SF-268
SF-295 = system: SF-295
SF-539 = system: SF-539
SK-MEL-28 = system: SK-MEL-28
SK-MEL-5 = system: SK-MEL-5
SK-OV-3 = system: SK-OV-3
SN12C = system: SN12C
SNB-19 = system: SNB-19
SNB-75 = system: SNB-75
SR = system: SR
SW-620 = system: SW-620
T47D = system: T47D
U-251 = system: U-251
UACC-257 = system: UACC-257
UACC-62 = system: UACC-62
UO-31 = system: UO-31
A498 = system: A498
SK-MEL-2 = system: SK-MEL-2
TK-10 = system: TK-10

Measured: GI50

Cc1n[nH]c(=O)n1C1CC1
> 100 µM: HCT-15
inactive: 786-0 > 100 µM | A549 > 100 µM | ACHN > 100 µM | CAKI-1 > 100 µM | CCRF-CEM > 100 µM | COLO 205 > 100 µM | DU-145 > 100 µM | EKVX > 100 µM | HCC 2998 > 100 µM | HCT-116 > 100 µM | HL-60 > 100 µM | HOP-62 > 100 µM | HOP-92 > 100 µM | HT-29 > 100 µM | Hs-578T > 100 µM | IGROV-1 > 100 µM | K562 > 100 µM | KM12 > 100 µM | LOX IMVI > 100 µM | M14 > 100 µM | MCF7 > 100 µM | MDA-MB-231 > 100 µM | MDA-MB-435 > 100 µM | MDA-N > 100 µM | MOLT-4 > 100 µM | Malme-3M 64.1 µM | NCI-H226 > 100 µM | NCI-H23 > 100 µM | NCI-H460 > 100 µM | NCI-H522 > 100 µM | NCI/ADR-RES > 100 µM | OVCAR-3 > 100 µM | OVCAR-4 > 100 µM | OVCAR-5 > 100 µM | OVCAR-8 > 100 µM | PC-3 > 100 µM | RPMI-8226 > 100 µM | RXF 393 > 100 µM | SF-268 > 100 µM | SF-295 > 100 µM | SF-539 > 100 µM | SK-MEL-28 > 100 µM | SK-MEL-5 > 100 µM | SK-OV-3 > 100 µM | SN12C > 100 µM | SNB-19 > 100 µM | SNB-75 42.7 µM | SR > 100 µM | SW-620 > 100 µM | T47D > 100 µM | U-251 > 100 µM | UACC-257 > 100 µM | UACC-62 > 100 µM | UO-31 > 100 µM
active: BT-549 0.0111 µM

O=C(CCc1ccc(O)c(O)c1)NCCc1cc(OCc2ccccc2)cc(OCc2ccccc2)c1
inactive: 786-0 13.3 µM | A498 15.7 µM | A549 16.7 µM | ACHN 5.47 µM | BT-549 6.07 µM | CAKI-1 4.45 µM | CCRF-CEM 1.77 µM | COLO 205 2.81 µM | DU-145 14.1 µM | EKVX 13.1 µM | HCC 2998 9.86 µM | HCT-116 11.8 µM | HL-60 2.51 µM | HOP-62 13.1 µM | HOP-92 8.87 µM | HT-29 10.1 µM | Hs-578T 9.29 µM | IGROV-1 5.93 µM | K562 5.92 µM | KM12 8.99 µM | LOX IMVI 10.4 µM | M14 12.1 µM | MCF7 12 µM | MDA-MB-231 16.6 µM | MDA-MB-435 12.2 µM | MDA-N 11 µM | MOLT-4 2.52 µM | NCI-H226 20.1 µM | NCI-H23 14.1 µM | NCI-H460 5.55 µM | NCI-H522 1.79 µM | NCI/ADR-RES 13.1 µM | OVCAR-3 5.92 µM | OVCAR-5 13.1 µM | OVCAR-8 13.6 µM | PC-3 8.09 µM | RPMI-8226 5.27 µM | RXF 393 10.1 µM | SF-268 8.45 µM | SF-295 18.1 µM | SF-539 11.7 µM | SK-MEL-28 10.8 µM | SK-MEL-2 17.9 µM | SK-MEL-5 12.2 µM | SK-OV-3 14 µM | SN12C 10.4 µM | SNB-19 3.71 µM | SNB-75 4.98 µM | SR 2.88 µM | SW-620 7.1 µM | T47D 16.4 µM | TK-10 16.3 µM | U-251 5.77 µM | UACC-257 28.1 µM | UACC-62 14.9 µM | UO-31 2.13 µM
3.03 µM: HCT-15

CC(C)(C)[Si](C)(C)OC[C@H](/C=C\CCCC(=O)O)NC1(c2ccccc2)c2ccccc2-c2ccccc21
11.2 µM: HCT-15
inactive: 786-0 14 µM | A498 17.5 µM | A549 10.7 µM | ACHN 11.8 µM | BT-549 24.5 µM | CAKI-1 11.2 µM | COLO 205 13.6 µM | DU-145 25.9 µM | EKVX 12.2 µM | HCC 2998 14.5 µM | HCT-116 7.29 µM | HL-60 8.53 µM | HOP-62 15.2 µM | HOP-92 11.1 µM | HT-29 13.2 µM | Hs-578T 20 µM | IGROV-1 16.7 µM | K562 5.18 µM | KM12 15.5 µM | LOX IMVI 12.9 µM | M14 16.8 µM | MCF7 10.4 µM | MDA-MB-231 14.3 µM | MDA-MB-435 13.9 µM | MDA-N 20.6 µM | MOLT-4 5.52 µM | NCI-H226 11.6 µM | NCI-H23 14.7 µM | NCI-H460 15.1 µM | NCI-H522 18.7 µM | NCI/ADR-RES 9.75 µM | OVCAR-3 12.5 µM | OVCAR-4 14.8 µM | OVCAR-5 23.2 µM | OVCAR-8 16.6 µM | PC-3 6.52 µM | RPMI-8226 4.17 µM | RXF 393 10.2 µM | SF-268 13.9 µM | SF-295 16.4 µM | SF-539 16.3 µM | SK-MEL-28 16.7 µM | SK-MEL-2 11.9 µM | SK-MEL-5 11.2 µM | SK-OV-3 20.4 µM | SN12C 11.6 µM | SNB-19 32.9 µM | SNB-75 29.4 µM | SR 4.65 µM | SW-620 22.5 µM | T47D 7.38 µM | TK-10 24.3 µM | U-251 14.4 µM | UACC-257 10.2 µM | UACC-62 12.6 µM | UO-31 19.3 µM

COc1ccc(/C=C(\C(=O)OCC(C)C)c2ccc(OC)c(OC)c2)cc1OC
inactive: 786-0 > 100 µM | A498 > 100 µM | A549 > 100 µM | ACHN > 100 µM | BT-549 > 100 µM | CAKI-1 > 100 µM | CCRF-CEM > 100 µM | COLO 205 38.4 µM | DU-145 > 100 µM | EKVX > 100 µM | HCC 2998 > 100 µM | HCT-116 > 100 µM | HL-60 > 100 µM | HOP-62 74 µM | HOP-92 > 100 µM | HT-29 > 100 µM | Hs-578T > 100 µM | IGROV-1 > 100 µM | K562 > 100 µM | KM12 > 10 µM | LOX IMVI 74.6 µM | M14 32.5 µM | MCF7 > 100 µM | MDA-MB-231 31 µM | MDA-MB-435 > 100 µM | MDA-N > 100 µM | MOLT-4 > 100 µM | NCI-H226 > 100 µM | NCI-H23 > 100 µM | NCI-H460 > 100 µM | NCI-H522 > 100 µM | NCI/ADR-RES > 100 µM | OVCAR-3 > 100 µM | OVCAR-4 > 100 µM | OVCAR-5 > 100 µM | OVCAR-8 > 100 µM | PC-3 > 100 µM | RPMI-8226 > 100 µM | RXF 393 > 100 µM | SF-268 > 100 µM | SF-295 69.5 µM | SF-539 > 100 µM | SK-MEL-28 > 100 µM | SK-MEL-2 > 100 µM | SK-MEL-5 > 100 µM | SN12C > 100 µM | SNB-19 > 100 µM | SNB-75 47.2 µM | SR > 100 µM | SW-620 > 100 µM | T47D > 100 µM | TK-10 > 100 µM | U-251 56.2 µM | UACC-257 > 100 µM | UACC-62 > 100 µM | UO-31 > 100 µM
> 100 µM: HCT-15

O=C(O)CCO/N=C1/C(=C2/C(=O)Nc3ccccc32)Nc2ccccc21
inactive: 786-0 21.5 µM | A498 5.6 µM | A549 22.5 µM | ACHN 15.2 µM | BT-549 24.5 µM | CAKI-1 4.97 µM | CCRF-CEM 13.8 µM | COLO 205 18.2 µM | DU-145 17.2 µM | EKVX 11.2 µM | HCC 2998 15.3 µM | HCT-116 12.3 µM | HL-60 23.7 µM | HOP-62 26.4 µM | HOP-92 36.1 µM | HT-29 25 µM | Hs-578T 21.1 µM | IGROV-1 11.9 µM | K562 36.7 µM | KM12 1.16 µM | LOX IMVI 12.4 µM | M14 19.6 µM | MCF7 23.3 µM | MDA-MB-231 37.4 µM | MDA-MB-435 29.6 µM | MDA-N 28.8 µM | MOLT-4 17.1 µM | Malme-3M 54.5 µM | NCI-H23 17.7 µM | NCI-H460 17.6 µM | NCI-H522 50.6 µM | NCI/ADR-RES 42.2 µM | OVCAR-3 11.7 µM | OVCAR-4 26.2 µM | OVCAR-5 40.9 µM | OVCAR-8 38.1 µM | PC-3 25.4 µM | RPMI-8226 42.2 µM | RXF 393 3.61 µM | SF-268 26.1 µM | SF-295 35.1 µM | SF-539 38.3 µM | SK-MEL-28 33.3 µM | SK-MEL-2 7.18 µM | SK-MEL-5 13.4 µM | SK-OV-3 2.98 µM | SN12C 23.7 µM | SNB-19 40.5 µM | SNB-75 13.8 µM | SR 12 µM | SW-620 29.7 µM | T47D 13.3 µM | TK-10 32.4 µM | U-251 30.3 µM | UACC-257 39.5 µM | UACC-62 14.7 µM | UO-31 12 µM
6.58 µM: HCT-15
